Laboratory results reported in patent US6645966B2, “Treatment of malaria with farnesyl protein transferase inhibitors” (Schering Corporation, priority 2001, dated 2003).
Like-named read-outs stand apart in the source and are kept apart here.

Assays:
[1] = tested on: P. falciparum (strain C10, partially chloroquine resistant strain); assay: In Vitro Plasmodium falciparum Growth Inhibition Assay ([3H]-hypoxanthine uptake into infected erythrocytes); type: cell-based; conditions: Erythrocyte
Method: The growth activity of P. falciparum was determined by measuring the uptake of the radiolabeled nucleic acid precursor [3H]-hypoxanthine from the media into infected erythrocytes by a method similar to that reported by Jomaa et al (1999). In this method human red blood cells (RBC) were infected with P. falciparum (strain C10, partially chloroquine resistant strain) to 0.4% parasitemia (0.4% of the RBC contain at least 1 parasite). The infected human RBC cells were adjusted to a hematocrit of 2% and 200 μl was plated into 96 well plates. DMSO solutions of inhibitors were added to the plates to make final concentrations of inhibitors from 20 μM to 0.2 μM and a final concentration of DMSO between 0.2 and 1%. The inhibitor-RBC solutions were incubated for 48 hours followed by the addition of [3H]-hypoxanthine to each well and further incubated for 24 hours. The incorporation of [3H]-hypoxanthine into the parasite DNA was measured by acid precipitating the nucleic acid content onto filters, washing the filters and counting the incorporated radioactivity in a scintillation counter.

melting point | Compound | other results
80 °C (dec.) | N#Cc1ccc(Cn2cncc2CCNC(=O)[C@H]2CN(Cc3ccncc3)CCN2C(=O)NC2CCCCC2)cc1 | –
71 to 75 °C | Clc1ccc2c(c1)CCc1cccnc1C2N1CCC[C@H](Cn2ccnc2)C1 (single isomer, unassigned) | –
– | CCN(CC)CCCC(C)Nc1ccnc2cc(Cl)ccc12 (stereo not shown) [chloroquine] | EC50 ([1]; read-out: ED50): 260 nM
– | O=CN(O)CCCP(=O)(O)O [fosmidomycin] | EC50 ([1]; P. falciparum strain C10 in infected human RBC, 0.4% parasitemia, 48 hours incubation then [3H]-hypoxanthine for 24 hours, read-out: ED50 (the source's name)): 600 nM
